What all share (assay type): cell-based
Assay [1] deals with Aspergillus flavus. In words: MIC, YAG medium. The note with it: 24 h at 35° C, MIC banded into grades; for MIC: Aspergillus flavus, 24 h, read-out: MIC grade, A. flavus. A digest of the protocol: (§1)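 Endpoint is growth at OD 485 nm after 24 h at 35° C, with MIC defined as the lowest drug level giving >70% inhibition relative to untreated wells and recorded in mg/L. Tests ran in YAG broth with 1−2×10^4 cfu/mL spore inocula from Sabouraud-grown cultures. Drug ranges were 50-0.05 mg/L, repeated at 0.5-0.0005 mg/L when needed.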

For assay [2], the system named is Aspergillus fumigatus AF210. In words: MIC, YAG medium. The settings on record: 24 h at 35° C, MIC banded into grades; for MIC: Aspergillus fumigatus, read-out: MIC grade, A. fumigatus 210. The method, boiled down: as §1
Assay [3] deals with Aspergillus fumigatus AF293. In words: MIC, YAG medium. The note with it: 24 h at 35° C, MIC banded into grades; for MIC: Aspergillus fumigatus, read-out: MIC grade, A. fumigatus. The method, boiled down:
as §1

Assay [4] relates to Aspergillus niger. In words: MIC, YAG medium. The settings on record: 24 h at 35° C, MIC banded into grades; for MIC: Aspergillus niger, read-out: MIC grade, A. niger. A digest of the protocol: as §1
Assay [5] relates to Aspergillus terreus AT49. Description: MIC, YAG medium. The note with it: 24 h at 35° C, MIC banded into grades; for MIC: Aspergillus terreus, read-out: MIC grade, A. terreus 49. A digest of the protocol:
as §1

In assay [6] the test system is Aspergillus terreus AT4. In words: MIC, YAG medium. The note with it: 24 h at 35° C, MIC banded into grades; for MIC: Aspergillus terreus, read-out: MIC grade, A. terreus. A digest of the protocol: as §1
Assay [7] relates to Aspergillus flavus. Description: MIC, RPMI medium. The note with it: MIC banded into grades; for MIC: Aspergillus flavus, read-out: MIC grade, A. flavus. A digest of the protocol: (§2)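 MIC taken as lowest drug level inhibiting growth by >80% relative to drug-free wells, read as OD at 485 nm after 24-48 h at 35° C. Organisms at 1−2×10^4 cfu/mL in RPMI (2% glucose, 0.135 M MOPS, pH 7.0) exposed to doubling dilutions spanning 50-0.05 mg/L.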

Assay [8] concerns Aspergillus fumigatus AF210. Description: MIC, RPMI medium. The note with it: for MIC: Aspergillus fumigatus, AF210, MIC banded into grades, read-out: MIC grade, A. fumigatus 210. A digest of the protocol:
as §2

For assay [9], the system named is Aspergillus fumigatus AF293. Description: MIC, RPMI medium. The note with it: for MIC: Aspergillus fumigatus, AF293, MIC banded into grades, read-out: MIC grade, A. fumigatus. The method, boiled down: as §2
The test system of assay [10] is Aspergillus niger. Description: MIC, RPMI medium. The note with it: MIC banded into grades; for MIC: Aspergillus niger, read-out: MIC grade, A. niger. A digest of the protocol: as §2
The subject of assay [11] is Aspergillus terreus AT49. In words: MIC, RPMI medium. The settings on record: for MIC: Aspergillus terreus, AT49, MIC banded into grades, read-out: MIC grade, A. terreus 49. The method, boiled down:
as §2

Assay [12] deals with Aspergillus terreus AT4. In words: MIC, RPMI medium. The settings on record: for MIC: Aspergillus terreus, AT4, MIC banded into grades, read-out: MIC grade, A. terreus. A digest of the protocol: as §2

Here are results for ten compounds from US8993574B2, “Pyrrole antifungal agents” (F2G Ltd, priority 2008, dated 2015).

By MIC is commonly meant the lowest concentration that inhibits growth of the organism.

The structures appear in SMILES notation. Converted amounts (≈) assume the structure as drawn. A value given as a limit tells only on which side of the number the result lay.

Consider `CCn1c(C)cc(-c2ccccc2)c1C(=O)C(=O)Nc1ccc(N2CCN(c3cc(C)cc(C)n3)CC2)cc1` [Example 34, N-{4-[4-(4,6-Dimethyl-pyridin-2-yl)-piperazin-1-yl]-phenyl}-2-(1-ethyl-5-methyl-3-phenyl-1H-pyrrol-2-yl)-2-oxo-acetamide], for which the MIC in assay [1], in [2], in [3], in assay [4], in [5] and in assay [6] was under 1 µg/mL in each case. Moreover, the MIC in [7], in assay [8], in [9], in assay [10], in assay [11] and in assay [12] was under 1 µg/mL in each case.

On to `COCCn1c(C)cc(-c2ccccc2)c1C(=O)C(=O)Nc1ccc(N2CCOCC2)c(F)c1` [Example 126, N-(3-Fluoro-4-morpholin-4-yl-phenyl)-2-[1-(2-methoxy-ethyl)-5-methyl-3-phenyl-1H-pyrrol-2-yl]-2-oxo-acetamide], for which the minimal inhibitory concentration (MIC) in [1] is 1 to 10 µg/mL (≈ 2.15 to 21.5 µM); in assay [2] it was under 1 µg/mL; in assay [3], under 1 µg/mL; in [4], 1 to 10 µg/mL (≈ 2.15 to 21.5 µM); in [5], under 1 µg/mL; in assay [6], under 1 µg/mL. Also, the MIC in assay [7] was over 10 µg/mL; in assay [8], 1 to 10 µg/mL (≈ 2.15 to 21.5 µM); in [9], 1 to 10 µg/mL (≈ 2.15 to 21.5 µM); in [10] it was over 10 µg/mL; in assay [11], 1 to 10 µg/mL (≈ 2.15 to 21.5 µM); in [12], 1 to 10 µg/mL (≈ 2.15 to 21.5 µM).

`Cc1cc(C)nc(N2CCN(c3ccc(NC(=O)C(=O)c4c(-c5ccccc5)cc(C)n4Cc4coc(C)n4)cc3)CC2)c1` [Example 146, N-{4-[4-(4,6-Dimethyl-pyridin-2-yl)-piperazin-1-yl]-phenyl}-2-[5-methyl-1-(2-methyl-oxazol-4-ylmethyl)-3-phenyl-1H-pyrrol-2-yl]-2-oxo-acetamide]: the minimal inhibitory concentration (MIC) is 1 to 10 µg/mL (≈ 1.7 to 17 µM) in assay [1]; under 1 µg/mL in [2]; under 1 µg/mL in assay [3]; 1 to 10 µg/mL (≈ 1.7 to 17 µM) in assay [4]; 1 to 10 µg/mL (≈ 1.7 to 17 µM) in assay [5]; 1 to 10 µg/mL (≈ 1.7 to 17 µM) in [6]. The MIC in [7] is over 10 µg/mL; in assay [8], over 10 µg/mL; in assay [9], under 1 µg/mL; in assay [10] it was 1 to 10 µg/mL (≈ 1.7 to 17 µM); in assay [11], over 10 µg/mL; in assay [12], over 10 µg/mL.

Regarding `COCCn1c(C)cc(-c2ccccc2)c1C(=O)C(=O)Nc1cccc2cnccc12` [Example 30, N-Isoquinolin-5-yl-2-[1-(2-methoxy-ethyl)-5-methyl-3-phenyl-1H-pyrrol-2-yl]-2-oxo-acetamide], the MIC in assay [1] was 1 to 10 µg/mL (≈ 2.42 to 24.2 µM); in assay [2], 1 to 10 µg/mL (≈ 2.42 to 24.2 µM); in assay [3] it was 1 to 10 µg/mL (≈ 2.42 to 24.2 µM); in assay [4], over 10 µg/mL; in assay [5], 1 to 10 µg/mL (≈ 2.42 to 24.2 µM); in assay [6] it was 1 to 10 µg/mL (≈ 2.42 to 24.2 µM). In addition, the MIC in assay [7], in assay [8], in assay [9], in [10], in assay [11] and in assay [12] was over 10 µg/mL in each case.

Regarding `CC(=O)NCCn1c(C)cc(-c2ccccc2)c1C(=O)C(=O)Nc1ccc(N2CCN(c3cc(C)cc(C)n3)CC2)cc1` [Example 65, 2-[1-(2-Acetylamino-ethyl)-5-methyl-3-phenyl-1H-pyrrol-2-yl]-N-{4-[4-(4,6-dimethyl-pyridin-2-yl)-piperazin-1-yl]-phenyl}-2-oxo-acetamide], the MIC in assay [1], in [2], in assay [3], in assay [4], in assay [5] and in [6] was over 10 µg/mL in each case. Besides, the MIC in assay [7], in assay [8], in assay [9], in assay [10], in assay [11] and in assay [12] was over 10 µg/mL each time.

Consider `Cc1cc(C)nc(N2CCN(c3ccc(NC(=O)C(=O)c4c(-c5ccco5)cc(C)n4C)cc3)CC2)c1` [Example 12, N-{4-[4-(4,6-Dimethyl-pyridin-2-yl)-piperazin-1-yl]-phenyl}-2-(3-furan-2-yl-1,5-dimethyl-1H-pyrrol-2-yl)-2-oxo-acetamide], for which the MIC in assay [1], in assay [2], in [3], in assay [4], in [5] and in [6] was under 1 µg/mL in each case. Further, the MIC in [7], in assay [8], in assay [9], in assay [10], in assay [11] and in assay [12] was under 1 µg/mL throughout.

Regarding `Cc1cc(-c2ccccc2)c(C(=O)C(=O)Nc2ccc(-c3ncco3)cc2)n1C` [Example 147, 2-(1,5-Dimethyl-3-phenyl-1H-pyrrol-2-yl)-N-(4-oxazol-2-yl-phenyl)-2-oxo-acetamide], the MIC in [1], in assay [2], in assay [3], in assay [4], in assay [5] and in assay [6] was under 1 µg/mL throughout. In addition, the MIC in assay [7], in assay [8], in assay [9], in [10], in assay [11] and in [12] was under 1 µg/mL each time.

With `COCCn1c(C)cc(-c2ccccc2)c1C(=O)C(=O)Nc1ccc(N2CCN(c3cc(C)cc(C)n3)CC2)cc1Cl` [Example 92, N-{2-Chloro-4-[4-(4,6-dimethyl-pyridin-2-yl)-piperazin-1-yl]-phenyl}-2-[1-(2-methoxy-ethyl)-5-methyl-3-phenyl-1H-pyrrol-2-yl]-2-oxo-acetamide], the results for the “MIC grade, A. flavus” value in [1] and in [7] were 3 (A grade of 3 represents an MIC of less than 1 mg/L) and 1 (a grade of 1 represents an MIC of greater than 10 mg/L), respectively. Besides, the “MIC grade, A. fumigatus 210” value in assay [2] and in [8] (MIC banded into grades) was 3 (A grade of 3 represents an MIC of less than 1 mg/L) throughout. For the same compound, the “MIC grade, A. fumigatus” value in assay [3] and in [9] (MIC banded into grades) was 3 (A grade of 3 represents an MIC of less than 1 mg/L) throughout. The “MIC grade, A. niger” value in assay [4] and in [10] was 3 (A grade of 3 represents an MIC of less than 1 mg/L) throughout. The “MIC grade, A. terreus 49” value in assay [5] was 3 (A grade of 3 represents an MIC of less than 1 mg/L); in [11] (MIC banded into grades) it was 1 (a grade of 1 represents an MIC of greater than 10 mg/L). For the same compound, the “MIC grade, A. terreus” value in assay [6] is listed as 3 (A grade of 3 represents an MIC of less than 1 mg/L); in assay [12] (MIC banded into grades), 1 (a grade of 1 represents an MIC of greater than 10 mg/L).

Consider `COCn1c(C)cc(-c2ccccc2)c1C(=O)C(=O)Nc1ccc(N2CCN(c3cc(C)cc(C)n3)CC2)cc1` [Example 62, N-{4-[4-(4,6-Dimethyl-pyridin-2-yl)-piperazin-1-yl]-phenyl}-2-(1-methoxymethyl-5-methyl-3-phenyl-1H-pyrrol-2-yl)-2-oxo-acetamide], for which the MIC in [1], in assay [2], in assay [3], in [4], in assay [5] and in [6] was under 1 µg/mL each time. In addition, the MIC in assay [7], in [8], in assay [9], in assay [10], in assay [11] and in [12] was under 1 µg/mL throughout.

As for `Cc1cc(-c2ccccc2)c(C(=O)C(=O)Nc2ccc(N3CCN(CC(C)C)CC3)cc2F)n1C` [Example 105, 2-(1,5-Dimethyl-3-phenyl-1H-pyrrol-2-yl)-N-[2-fluoro-4-(4-isobutyl-piperazin-1-yl)-phenyl]-2-oxo-acetamide], the minimal inhibitory concentration (MIC) in assay [1], in assay [2], in [3], in assay [4], in assay [5] and in assay [6] was under 1 µg/mL each time. For the same compound, the MIC in assay [7], in [8], in assay [9], in assay [10], in [11] and in [12] was under 1 µg/mL in each case.
